The first test addresses T1, human motilin receptor (Homo sapiens, UniProt O43193).
T1 construct: purchased PerkinElmer 6110544; host or cells: CHO cells, stably transfected
In words: Competitive radioligand binding assay (motilin receptor), Method B1. The settings on record: read-out: Binding Affinity [Ki (μM)]. As to the method:
(§1) The compounds of the present invention were evaluated for their ability to interact at the human motilin receptor and the human ghrelin receptor utilizing competitive redioligand binding assays as described in Method B1 and B2, respectively. Further characterization of the interaction can be performed utilizing the functional assays described in Methods B3 and B4 for the motilin and ghrelin receptors, respectively. All of these methods can be conducted, if so desired, in a high throughput manner to permit the simultaneous evaluation of many compounds.
Competitive Radioligand Binding Assay (Motilin Receptor)
• Membranes were prepared from CHO cells stably transfected with the human motilin receptor and utilized at a quantity of 1.5 μg/assay point. [PerkinElmer™ SignalScreen® Product #6110544, PerkinElmer, Inc. Wellesley, MA] • [^125I]-Motilin (PerkinElmer, #NEX-378); final concentration: 0.04-0.06 nM • Motilin (Bachem™, #H-4385, Bachem Bioscience Inc., King of Prussia, PA.); final concentration: 1 μM • Multiscreen® Harvest plates-GF/B (Millipore™, #MAHFB1H60, Billerica, MA) • Deep-well polypropylene titer plate (Beckman Coulter™,#267006, Fullerton, CA) • TopSeal-A™ (PerkinElmer, #6005185, Wellesley, MA) • Bottom seal (Millipore, #MATAH0P00) • MicroScint-0™(PerkinElmer,#6013611, Wellesley, MA) • Binding Buffer: 50 mM Tris-HCl (pH 7.4), 10 mM MgCl2, 1 mM EDTA, 0.1% BSA Assay Volumes: • 150 μL of membranes diluted in binding buffer • 10 μL of compound diluted in binding buffer • 10 μL of radioligand ([^125I]-Motilin) diluted in binding buffer Final Test Concentrations (N=11) for Compounds: • 10, 5, 2, 1, 0.5, 0.2, 0.1, 0.05, 0.02, 0.01, 0.005 μM. Compound Handling:
Compounds were provided frozen on dry ice at a stock concentration of 10 mM diluted in 100% DMSO and stored at −20° C. until the day of testing. On the test day, compounds were allowed to thaw at room temperature and than diluted in assay buffer according to the desired test concentrations. Under these conditions, the maximum final DMSO concentration in the assay was 0.5%.
In deep-well plates, diluted cell membranes (1.5 μg/mL) are combined with 10 μL of either binding buffer (total binding, N=5), 1 μM motilin (non-specific binding, N=3) or the appropriate concentration of test compound. The reaction is initiated by addition of 10 μl of [^125I]-motilin (final conc. 0.04-0.06 nM) to each well. Plates are sealed with TopSeal-A™, vortexed gently and incubated at room temperature for 2 hours. The reaction is arrested by filtering samples through pre-soaked (0.3% polyethyleneimine, 2 h) Multiscreen®Harvest plates using a Tomtec® Harvester (Tomtec, Hamden, CT), washed 9 times with 500 μL of cold 50 mM Tris-HCI (pH 7.4), and than plates are air-dried in a fumehood for 30 minutes. A bottom seal is applied to the plates prior to the addition of 25 μL of MicroScint-0 ® to each well. Plates are then sealed with TopSeal-A™ and counted for 30 sec per well on a TopCount® Microplate Scintillation and Luminescence Counter (PerkinElmer, Wellesley, MA) where results are expressed as counts per minute (cpm).
Data are analyzed by GrapbPad™ Prism® (GraphPad Software, San Diego, CA) using a variable slope non-linear regression analysis.
[formula] where total and non-specific binding represent the cpm obtained in the absence or presence of 1 μM motilin, respectively.
T2 sequence (Q92847 whole entry): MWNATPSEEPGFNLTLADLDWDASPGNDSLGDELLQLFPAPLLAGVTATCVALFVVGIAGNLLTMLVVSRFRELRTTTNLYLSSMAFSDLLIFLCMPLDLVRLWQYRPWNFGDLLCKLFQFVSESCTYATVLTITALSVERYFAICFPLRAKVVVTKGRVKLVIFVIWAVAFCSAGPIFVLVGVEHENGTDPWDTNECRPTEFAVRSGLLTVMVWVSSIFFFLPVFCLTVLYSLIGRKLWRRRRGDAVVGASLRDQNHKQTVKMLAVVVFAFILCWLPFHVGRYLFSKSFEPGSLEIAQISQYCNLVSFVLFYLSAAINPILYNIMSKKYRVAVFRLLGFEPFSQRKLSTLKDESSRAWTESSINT
T1 sequence (O43193 whole entry): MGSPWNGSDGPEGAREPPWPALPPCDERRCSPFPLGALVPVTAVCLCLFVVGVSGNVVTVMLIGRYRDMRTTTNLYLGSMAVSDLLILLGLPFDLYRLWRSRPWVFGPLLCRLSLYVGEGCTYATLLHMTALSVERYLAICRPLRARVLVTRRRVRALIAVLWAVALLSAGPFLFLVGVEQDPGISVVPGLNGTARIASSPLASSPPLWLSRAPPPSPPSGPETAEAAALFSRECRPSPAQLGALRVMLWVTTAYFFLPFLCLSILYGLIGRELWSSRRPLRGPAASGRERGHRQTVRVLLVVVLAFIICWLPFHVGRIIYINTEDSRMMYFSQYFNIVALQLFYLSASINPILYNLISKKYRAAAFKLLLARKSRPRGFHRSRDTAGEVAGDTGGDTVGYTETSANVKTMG
Turning to `CC(C)[C@H]1NC(=O)[C@@H](Cc2cccc(C(F)(F)F)c2)NCCOc2ccccc2C[C@H](C)CNC(=O)[C@H](CNC(=N)N)NC1=O` [compound 201], the Ki – broadly, the equilibrium dissociation constant of an inhibitor or competing ligand from its target – fell in the range of 0.001 to 0.1 µM.
As for `CC(C)[C@H]1NC(=O)[C@@H](Cc2cccc(Cl)c2)N[C@@H](C)COc2ccccc2CCCNC(=O)[C@H](CNC(=N)N)NC1=O` [compound 203], the Ki lay in the range of 0.001 to 0.1 µM.
With `CC(C)[C@H]1NC(=O)[C@@H](Cc2cccc(C(F)(F)F)c2)NCCOc2ccccc2C[C@@H](C)CNC(=O)[C@H](CNC(=N)N)NC1=O` [compound 204], the Ki lay within 0.001 to 0.1 µM.
Same read-out and setting: in the case of `CC(C)[C@H]1NC(=O)[C@@H](Cc2cccc(F)c2)NCCOc2ccccc2C[C@@H](C)CNC(=O)[C@H](CN(C)C)NC1=O` [compound 205] it was 0.1 to 1 µM; in that of `CC(C)[C@H]1NC(=O)[C@@H](Cc2cccc(Cl)c2)NCCOc2ccccc2C[C@H](C)CNC(=O)[C@H](CC2CC2)NC1=O` [compound 207], 0.001 to 0.1 µM; in that of `CC(C)[C@H]1NC(=O)[C@@H](Cc2cccc(F)c2)N[C@@H](C)COc2ccccc2CCCNC(=O)[C@H](CC2CC2)NC1=O` [compound 208], 0.001 to 0.1 µM.
On to `CC1CNC(=O)[C@H](CC2CC2)NC(=O)[C@@H](C(C)C)NC(=O)[C@@H](Cc2cccc(Cl)c2)NCCOc2ccccc2C1` (stereo partly drawn) [compound 209], for which the Ki was 0.001 to 0.1 µM.
On the same count and under the same terms, then `CC(C)[C@H]1NC(=O)[C@@H](Cc2cccc(Cl)c2)NCCOc2ccccc2C[C@@H](C)CNC(=O)[C@H](CC2CC2)NC1=O` [compound 211], with 0.001 to 0.1 µM.
Same read-out and setting: in the case of `CC(C)[C@H]1NC(=O)[C@@H](Cc2cccc(F)c2)NCCOc2ccccc2C[C@@H](C)CNC(=O)[C@H](CC2CC2)NC1=O` [compound 214] it was 0.001 to 0.1 µM; in that of `CC(C)[C@H]1NC(=O)[C@@H](Cc2cccc(Cl)c2)NCCOc2ccccc2C[C@H](O)CNC(=O)[C@H](CC2CC2)NC1=O` [compound 215], 0.001 to 0.1 µM; in that of `CC(C)[C@H]1NC(=O)[C@@H](Cc2cccc(Cl)c2)NCCOc2ccccc2C[C@@H](O)CNC(=O)[C@H](CC2CC2)NC1=O` [compound 216], 0.001 to 0.1 µM.
As to `CC(C)[C@H]1NC(=O)[C@@H](Cc2cccc(F)c2)N[C@H](C)COc2ccccc2CCCNC(=O)[C@H](CC2CC2)NC1=O` [compound 217], the Ki is 0.1 to 1 µM.
On the same count and under the same terms, in the case of `CC(C)[C@H]1NC(=O)[C@@H](Cc2cccc(F)c2)NCCOc2ccccc2C[C@H](O)CNC(=O)[C@H](CC2CC2)NC1=O` [compound 218] it was 0.1 to 1 µM; in that of `CC(C)[C@H]1NC(=O)[C@@H](Cc2cccc(F)c2)NCCOc2ccccc2C[C@@H](O)CNC(=O)[C@H](CC2CC2)NC1=O` [compound 219], 0.1 to 1 µM; in that of `CC(C)[C@H]1NC(=O)[C@@H](Cc2cccc(F)c2)NC[C@@H](C)Oc2ccccc2CCCNC(=O)[C@H](CC2CC2)NC1=O` [compound 220], 0.1 to 1 µM.
Same read-out and setting: in the case of `CCC[C@@H]1NC(=O)[C@@H](C(C)C)NC(=O)[C@@H](Cc2ccc(OC)cc2)NC(C)COc2ccccc2CCCNC1=O` (stereo partly drawn) [compound 222] it was 0.001 to 0.1 µM; in that of `CC1COc2ccccc2CCCNC(=O)[C@H](CC2CC2)NC(=O)[C@@H](C(C)C)NC(=O)[C@@H](Cc2cccc(Cl)c2)N1` (stereo partly drawn) [compound 223], 0.001 to 0.1 µM; in that of `CCC[C@@H]1NC(=O)[C@@H](C(C)C)NC(=O)[C@@H](Cc2ccc(O)cc2)NC[C@H](C)Oc2ccccc2CCCNC1=O` [compound 226], 0.1 to 1 µM.
The same measure, in the same setting: then `CCC[C@@H]1NC(=O)[C@@H](C(C)C)NC(=O)[C@@H](Cc2ccc(O)cc2)NC[C@@H](C)Oc2ccccc2CCCNC1=O` [compound 227], with 0.1 to 1 µM.

The next test has as its target T2, human ghrelin receptor (hGHS-R1a) (Homo sapiens, UniProt Q92847).
T2 construct: purchased PerkinElmer BioSignal RBHGHSM, lot#1887; host or cells: HEK-293 cells, stably transfected
The experiment in a line: Competitive radioligand binding assay (ghrelin receptor), Method B2. Particulars: read-out: Binding Affinity [Ki (μM)]. As to the method: as §1
Competitive Radioligand Binding Assay (Ghrelin Receptor)
The competitive binding assay at the human growth hormone secretagogue receptor (hGHS-R1a) was carried out analogously to assays described in the literature. (Bednarek M A et al. (2000), Structure-function studies on the new growth hormone-releasing peptide ghrelin: minimal sequence of ghrelin necessary for activation of growth hormone secretagogue receptor 1 a; J Med Chem 43:43704376. Palucki B L et al. (2001), Spiro(indoline-3,4′-piperidine) growth hormone secretagogues as ghrelin mimetics; Bioorg Med Chem Lett 11:1955-1957.)
• Membranes (GHS-R/HEK 293) were prepared from HEK-293 cells stably transfected with the human ghrelin receptor (hGHS-Rla). These membranes were provided by PerkinElmer BioSignal® (#RBHGHSM, lot#1887, PerkinlElmer, Wellesley, MA) and utilized at a quantity of 0.71 μg/assay point. • [^125I]-Ghrelin (PerkinElmer, #NEX-388); final concentration: 0.0070-0.0085 nM • Ghrelin(Bachem, #H-4864, Bachem Bioscience Inc., King of Prussia, PA); final concentration: 1 μM • Multiscreen® Harvest plates-GF/C (Millipore, #MAHFC1H60, Billerica, MA) • Deep-well polypropylene titer plate (Beckman Coulter, #267006, Fullerton, CA) • TopSeal-A™ (PerkinElmer, #6005185, Wellesley, MA) • Bottom seal (Millipore, #MATAH0P00) • MicroScint-0™ (PerkinElmer, #6013611, Wellesley, MA) • Binding Buffer: 25 mM Hepes (pH 7.4), 1 mM CaCl2, 5 mM MgCl2, 2.5 mM EDTA, 0.4% BSA Assay Volumes
Competition experiments were performed in a 300 μL filtration assay format. • 220 μL of membranes diluted in binding buffer • 40 μL of compound diluted in binding buffer • 40 μL of radioligand ([^125I]-Ghrelin) diluted in binding buffer
Final test concentrations (N=1) for compounds of the present invention: • 10, 1, 0.5, 0.2, 0.1, 0.05, 0.02, 0.01, 0.005, 0.002, 0.001 μM. Compound Handling
Compounds were provided frozen on dry ice at a stock concentration of 10 mM diluted in 100% DMSO and stored at −80° C. until the day of testing. On the test day, compounds were allowed to thaw at rt overnight and then diluted in assay buffer according to the desired test concentrations. Under these conditions, the maximal final DMSO concentration in the assay was 0.1%.
In deep-well plates, 220 μL of diluted cell membranes (final concentration: 0.71 μg/well) were combined with 40 μL of either binding buffer (total binding, N =5), 1 μM ghrelin (non-specific binding, N =3) or the appropriate concentration of test compound (N =2 for each test concentration). The reaction was initiated by addition of 40 μL of [^125I]-ghrelin (final conc. 0.0070-0.0085 nM) to each well. Plates were sealed with TopSeal-A™, vortexed gently and incubated at rt for 30 min. The reaction was arrested by filtering samples through Multiscreen® Harvest plates (pre-soaked in 0.5% polyethyleneimine) using a Tomtec®Harvester (Tomtec, Hamden, CT), washed 9 times with 500 μL of cold 50 mM Tris-HCl (pH 7.4, 4° C), and then plates were air-dried in a fumehood for 30 min. A bottom seal was applied to the plates prior to the addition of 25 μL of MicroScint-0™ to each well. Plates were than sealed with TopSeal-A™ and counted for 30 sec per well on a TopCount® Microplate Scintillation and Luminescence Counter (PerkinElmer, Wellesley, MA) using a count delay of 60 sec. Results were expressed as counts per minute (cpm). […]
As to `CC1COc2ccccc2CCCNC(=O)C(Cc2ccc(F)cc2)NC(=O)C(C)N(C)C(=O)C(C2CC2)N1` (stereo not drawn) [compound 241], the Ki lay within 0.001 to 0.1 µM.
The same measure, in the same setting: then `CCC(C)[C@@H]1NC[C@@H](C)Oc2ccccc2CCCNC(=O)[C@@H](Cc2ccccc2)NC(=O)[C@@H](C)N(C)C1=O` (stereo partly drawn) [compound 242], with 0.001 to 0.1 µM.
Same read-out and setting: in the case of `CCC(C)[C@@H]1NC[C@H](C)Oc2ccccc2CCCNC(=O)[C@@H](Cc2ccccc2)NC(=O)[C@@H](C)N(C)C1=O` (stereo partly drawn) [compound 243] it was 0.001 to 0.1 µM.
As to `CC1CNC(C2CC2)C(=O)N(C)C(C)C(=O)NC(Cc2ccc(F)cc2)C(=O)NCCCc2ccccc2O1` (stereo not drawn) [compound 244], the Ki is 0.001 to 0.1 µM.
Still for that read-out and setting: in the case of `CC1CNC(=O)C(Cc2ccc(F)cc2)NC(=O)C(C)N(C)C(=O)C(C2CC2)NCCOc2ccccc2C1` (stereo not drawn) [compound 248] it was 0.1 to 1 µM; in that of `CCC(C)C1NCC(C)Oc2ccccc2CCCNC(=O)C(Cc2cccc(Cl)c2)NC(=O)C2(CCCC2)NC1=O` (stereo not drawn) [compound 254], 0.001 to 0.1 µM; in that of `CCC(C)C1NCCOc2ccccc2C(C)CCNC(=O)C(Cc2cccc(Cl)c2)NC(=O)C2(CCCC2)NC1=O` (stereo not drawn) [compound 256], 0.1 to 1 µM.
Still for that read-out and setting: then `CCC(C)C1NCCOc2ccccc2CC(C)CNC(=O)C(Cc2cccc(Cl)c2)NC(=O)C2(CCCC2)NC1=O` (stereo not drawn) [compound 257], with 0.001 to 0.1 µM.

Values taken from patent publication US7452862B2, “Conformationally-controlled biologically active macrocyclic small molecules as motilin antagonists or ghrelin agonists” (Tranzyme Pharma, Inc., priority 2003, dated 2008).
